Several values for one entry are separate records, joined by “and”; a condition that tells them apart may be missing. Identical values can stand only once. Like-named read-outs stand apart in the source and are kept apart here.
How the values were obtained:
[1] = in vivo
[2] = cited from earlier work
AAA [3] = conditions: PPE induced AAA; cited from earlier work
SGLT2 = biological target: T1, SGLT2 (Homo sapiens, UniProt P31639); conditions: cited from earlier work
T1 sequence (P31639 1-672): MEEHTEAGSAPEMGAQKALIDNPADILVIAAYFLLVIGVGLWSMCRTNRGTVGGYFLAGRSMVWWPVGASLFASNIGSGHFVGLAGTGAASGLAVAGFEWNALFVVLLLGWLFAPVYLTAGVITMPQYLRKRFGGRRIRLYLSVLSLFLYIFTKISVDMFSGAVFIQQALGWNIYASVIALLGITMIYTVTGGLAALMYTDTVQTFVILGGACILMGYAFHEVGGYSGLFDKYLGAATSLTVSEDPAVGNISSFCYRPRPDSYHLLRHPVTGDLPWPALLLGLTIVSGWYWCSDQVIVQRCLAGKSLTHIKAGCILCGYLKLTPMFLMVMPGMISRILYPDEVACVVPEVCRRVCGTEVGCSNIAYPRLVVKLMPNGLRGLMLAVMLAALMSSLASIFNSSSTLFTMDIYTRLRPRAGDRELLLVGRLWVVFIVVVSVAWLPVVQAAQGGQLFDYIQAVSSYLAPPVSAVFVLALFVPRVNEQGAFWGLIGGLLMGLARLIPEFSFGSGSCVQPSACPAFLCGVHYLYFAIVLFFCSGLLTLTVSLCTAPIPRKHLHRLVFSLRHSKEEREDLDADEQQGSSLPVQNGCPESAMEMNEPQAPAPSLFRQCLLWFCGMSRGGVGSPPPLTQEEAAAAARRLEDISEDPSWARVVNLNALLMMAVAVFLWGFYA

[4] = cited from earlier work; remark: listed apart in the source
[5] = cited from earlier work; remark: listed apart in the source
[6] = cited from earlier work; remark: listed apart in the source
human VSMCs = conditions: dependent on TRAF3IP2/ROS/NLRP3/caspase-1; cited from earlier work
[7] = mice; cited from earlier work
[8] = test system: rat aortic smooth muscle cells; conditions: in vitro; cited from earlier work
AAA [9] = conditions: apoE-/- Ang II induction model; cited from earlier work
[10] = cited from earlier work; remark: listed apart in the source
[11] = high-fat diet fed mice; cited from earlier work
abdominal PVAT = conditions: mice fed with Western diet; cited from earlier work
[12] = 28-day study, 28 volunteers; cited from earlier work
AAA [13] = conditions: murine models; cited from earlier work
vSMCs = conditions: via ROS-Nrf2 pathway; cited from earlier work

C[C@H](O)CC(=O)O [S-BHB]
persistence of BHB elevation [1]: 4 to 5 h | stability in human plasma compared with R/D BHB ([2]; human plasma): far more stable | sustained in plasma, relative to (D/R) BHB ([2]; plasma): more than 2 x

CCOc1ccc(Cc2cc([C@@H]3O[C@H](CO)[C@@H](O)[C@H](O)[C@H]3O)ccc2Cl)cc1 [Dapagliflozin, (2S,3R,4R,5S,6R)-2-{4-chloro-3-[(4-ethoxyphenyl)methyl]phenyl}-6-(hydroxymethyl)oxane-3,4,5-triol]
aneurysmal induction and expansion (AAA [3]): significantly impeded | SGLT2 selectivity over SGLT1 (SGLT2): 1200 fold | Bioavailability ([4]; in vivo): 78% | t1/2 ([4]; in vivo): 12.9 h | tmax ([4]; in vivo): 1 to 1.5 h

CCc1ccc(Cc2ccc3c(c2)[C@]2(OC3)O[C@H](CO)[C@@H](O)[C@H](O)[C@H]2O)cc1 [Tofogliflozin]
Protein binding [5]: 83% | SGLT2 selectivity over SGLT1 (SGLT2): 2900 fold | Cmax ([4]; 10 mg dose): 489 ng/mL | t1/2 ([4]; 10 mg dose): 6.8 h | Bioavailability ([4]; 10 mg): 97.50% | tmax ([4]; 10 mg): 0.75 h

OC[C@H]1O[C@@H](c2ccc(Cl)c(Cc3ccc(O[C@H]4CCOC4)cc3)c2)[C@H](O)[C@@H](O)[C@@H]1O [Empagliflozin]
Bioavailability ([6]; rats): 31% | secretion of IL-1b and IL-18 (human VSMCs): inhibits | Bioavailability [7]: 90-97% and 90–97% | aortic smooth muscle cell proliferation [8]: significantly decreased | effect on AAA (AAA [9]): impedes AAA | Bioavailability ([10]; dogs): 89% | Cmax ([4]; 10 mg dose): 259 nM | t1/2 ([4]; 10 mg dose): 13.2 h | t1/2 (hours) ([4]; 10 mg dose): 13.2 (10 mg dose); hours | Cmax ([4]; 25 mg dose): 687 nM | t1/2 ([4]; 25 mg dose): 13.3 h | t1/2 (hours) ([4]; 25 mg dose): 13.3h (25 mg dose) hours | tmax ([4]; in vivo): 1.5 h

CCOc1ccc(Cc2cc([C@@H]3S[C@H](CO)[C@@H](O)[C@H](O)[C@H]3O)c(OC)cc2C)cc1 [Luseogliflozin]
Bioavailability ([6]; female rats): 58.2% | intimal hyperplasia after bilateral femoral artery wire injury [11]: reducing intimal hyperplasia | SGLT2 selectivity over SGLT1 (SGLT2): 1650 fold | Bioavailability ([10]; male dogs): 97.2% | Cmax ([4]; in vivo): 119 ± 27.0 ng/mL | t1/2 ([4]; in vivo): 9.24 ± 0.928 h | tmax ([4]; in vivo): 0.625 ± 0.354 h

OC[C@H]1O[C@@H](c2ccc(F)c(Cc3cc4ccccc4s3)c2)[C@H](O)[C@@H](O)[C@@H]1O [Ipragliflozin]
SGLT2 selectivity over SGLT1 (SGLT2): 360 fold | inflammation, fibrosis, and adipocyte death of abdominal PVAT (abdominal PVAT): attenuated | t1/2 (hours) ([4]; 50 mg dose): 15-16 (50 mg dose) hours and 15–16 (50 mg dose) hours | tmax ([4]; 50 mg): 1 h | Bioavailability ([4]; in vivo): 90%

CCOc1ccc(Cc2cc([C@]34OC[C@](CO)(O3)[C@@H](O)[C@H](O)[C@H]4O)ccc2Cl)cc1 [Ertugliflozin]
Protein binding [5]: 95% | SGLT2 selectivity over SGLT1 (SGLT2): 2000 fold | Cmax ([4]; 15 mg dose): 268 ng/mL (15 mg dose) | Bioavailability ([4]; in vivo): 70-90% | t1/2 ([4]; in vivo): 11 to 17 h | tmax ([4]; in vivo): 0.5 to 1.5 h

C[C@@H](O)CCOC(=O)C[C@@H](C)O [KE-BHB]
effect on body weights or composition, fasting blood glucose, cholesterol, triglyceride, or electrolyte concentrations, blood gases or kidney function [12]: no effect

Nc1ccccc1NC(=O)c1ccc(CNC(=O)OCc2cccnc2)cc1 [MS-275]
effect on AAA (AAA [13]): reduce AAA

C[C@@H](O)CC(=O)O [R-BHB, R-beta hydroxybutyrate]
persistence of BHB elevation [1]: ~ 2.5 hours

Cc1ccc([C@@H]2O[C@H](CO)[C@@H](O)[C@H](O)[C@H]2O)cc1Cc1ccc(-c2ccc(F)cc2)s1 [Canagliflozin]
Protein binding [5]: 99% | expression of heme oxygenase-1 (vSMCs): stimulates | SGLT2 selectivity over SGLT1 (SGLT2): 250 fold | t1/2 ([4]; 100 mg dose): 10.6 h | t1/2 (hours) ([4]; 100 mg dose): 10.6 (100 mg dose); hours | Bioavailability ([4]; 300 mg dose): 65% (300 mg dose) | t1/2 ([4]; 300 mg dose): 13.1 h | t1/2 (hours) ([4]; 300 mg dose): 13.1 (300 mg dose) hours | tmax ([4]; in vivo): 1 to 2 h
